According to ChEMBL document CHEMBL5370539, “Oxazole-4-carboxamide/butylated hydroxytoluene hybrids with GSK-3β inhibitory and neuroprotective activities against Alzheimer's disease” (Eur J Med Chem, 2023):
Calls of active or inactive are those of the source. No cut-off for these calls is given here.

Assays:
PC-12 [1] = assay: Anti-apoptotic activity against H2O2-induced apoptosis in rat PC12 cells assessed as late apoptotic cells at 5 uM preincubated for 12 hrs followed by replacement with fresh media and H2O2 stimulation for 12 hrs by Annexin-V/7-AAD staining based flow cytometry (Rvb=2.2 %); type: functional
PC-12 [2] = assay: Cytotoxicity against rat PC12 cells assessed as cell viability at 6.25 to 100 uM incubated for 24 hrs by MTT assay; type: toxicity, cell-based; conditions: pc-12, 24 h, dose 6.25-100 µM
PC-12 [3] = assay: Anti-apoptotic activity against H2O2-induced apoptosis in rat PC12 cells assessed as late apoptotic cells at 10 uM preincubated for 12 hrs followed by replacement with fresh media and H2O2 stimulation for 12 hrs by Annexin-V/7-AAD staining based flow cytometry (Rvb=2.2 %); type: functional
PC-12 [4] = assay: Neuroprotective activity against rat PC12 cells assessed as decrease in H2O2-induced mitochondrial membrane potential level at 10 uM preincubated for 12 hrs followed by replacement with fresh media and H2O2 stimulation for 12 hrs by JC-1 dye based flow cytometry (Rvb=95.3%); type: functional; design: scale not given: the % may be the effect or the level left
PC-12 [5] = assay: Anti-apoptotic activity against H2O2-induced apoptosis in rat PC12 cells assessed as late apoptotic cells at 2.5 uM preincubated for 12 hrs followed by replacement with fresh media and H2O2 stimulation for 12 hrs by Annexin-V/7-AAD staining based flow cytometry (Rvb=2.2 %); type: functional
PC-12 [6] = assay: Anti-apoptotic activity against H2O2-induced apoptosis in rat PC12 cells assessed as living cells at 2.5 uM preincubated for 12 hrs followed by replacement with fresh media and H2O2 stimulation for 12 hrs by Annexin-V/7-AAD staining based flow cytometry (Rvb=92.9%); type: functional
PC-12 [7] = assay: Neuroprotective activity against rat PC12 cells assessed as decrease in H2O2-induced mitochondrial membrane potential level at 2.5 uM preincubated for 12 hrs followed by replacement with fresh media and H2O2 stimulation for 12 hrs by JC-1 dye based flow cytometry (Rvb= 95.3%); type: functional; design: scale not given: the % may be the effect or the level left
PC-12 [8] = assay: Neuroprotective activity against rat PC12 cells assessed as decrease in H2O2-induced intracellular Ca2+ level at 10 uM preincubated for 12 hrs followed by replacement with fresh media and H2O2 stimulation for 12 hrs by Fluo-3 AM based flow cytometry relative to control; type: functional; design: scale not given: the % may be the effect or the level left
PC-12 [9] = assay: Neuroprotective activity against rat PC12 cells assessed as decrease in H2O2-induced intracellular Ca2+ level at 5 uM preincubated for 12 hrs followed by replacement with fresh media and H2O2 stimulation for 12 hrs by Fluo-3 AM based flow cytometry relative to control; type: functional; design: scale not given: the % may be the effect or the level left
PC-12 [10] = assay: Anti-apoptotic activity against H2O2-induced apoptosis in rat PC12 cells assessed as dead cells at 10 uM preincubated for 12 hrs followed by replacement with fresh media and H2O2 stimulation for 12 hrs by Annexin-V/7-AAD staining based flow cytometry (Rvb=4.1%); type: functional
PC12 [11] = assay: Activation of Nrf2-ARE pathway in rat PC-12 cells assessed as increase in NQO1 expression level at 2.5 to 10 uM incubated for 12 hrs by Western blot analysis; type: cell-based; conditions: filed as activator, dose 2.5-10 µM
[12] = target: T1, Glycogen synthase kinase-3 beta (Homo sapiens, UniProt P49841); assay: Inhibition of recombinant human GSK-3beta using YRRAAVPPSPSLSRHSSPHQ(pS)EDEE as substrate preincubated for 15 mins followed by substrate addition and measured after 60 mins by Kinase-Glo luminescent kinase assay
Target sequence in this assay (P49841 whole entry): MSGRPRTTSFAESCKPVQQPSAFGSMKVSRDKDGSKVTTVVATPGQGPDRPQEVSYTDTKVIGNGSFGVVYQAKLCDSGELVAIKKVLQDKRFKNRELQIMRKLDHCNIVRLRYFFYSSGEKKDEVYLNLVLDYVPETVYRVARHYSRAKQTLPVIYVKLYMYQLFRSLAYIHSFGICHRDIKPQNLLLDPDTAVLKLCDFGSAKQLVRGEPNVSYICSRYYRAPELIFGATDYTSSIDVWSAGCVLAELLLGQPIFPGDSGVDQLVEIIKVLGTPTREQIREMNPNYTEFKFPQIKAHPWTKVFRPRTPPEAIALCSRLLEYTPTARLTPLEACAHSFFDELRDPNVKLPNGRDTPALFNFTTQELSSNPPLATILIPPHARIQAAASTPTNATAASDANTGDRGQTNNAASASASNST

PC-12 [13] = assay: Neuroprotective activity against H2O2-induced cytotoxicity in rat PC12 cells assessed as increase in cell viability at 10 uM pretreated with Brusatol for 1hrs and preincubated for 12 hrs followed by replacement with fresh media and H2O2 stimulation for 12 hrs by MTT assay; type: functional, cell-based
PC-12 [14] = assay: Anti-apoptotic activity against H2O2-induced apoptosis in rat PC12 cells assessed as early apoptotic cells at 2.5 uM preincubated for 12 hrs followed by replacement with fresh media and H2O2 stimulation for 12 hrs by Annexin-V/7-AAD staining based flow cytometry (Rvb=0.8%); type: functional
Mus musculus [15] = assay: Antialzheimer activity in okadaic acid-induced cognitive impairment ICR mouse model assessed as path tracing at 0.08 to 0.24 mg/kg, iv twice at 3days interval before and after okadaic acid stimulation measured upto 14 days by Morris water maze test relative to control; type: functional, organism-based; conditions: dose 0.08-0.24 mg/kg, time <= 14.0 day
PC12 [16] = assay: Activation of Nrf2-ARE pathway in rat PC-12 cells assessed as increase in Nrf2 expression level in nucleus at 10 uM incubated for 3 hrs by Western blot analysis; type: cell-based; conditions: filed as activator
L02 = assay: Cytotoxicity against human L02 cells assessed as cell viability at 6.25 to 100 uM incubated for 24 hrs by MTT assay; type: toxicity, cell-based; conditions: l02, 24 h, dose 6.25-100 µM
PC12 [17] = assay: Activation of Nrf2-ARE pathway in rat PC-12 cells assessed as increase in TrxR1 expression level at 2.5 to 10 uM incubated for 6 hrs by Western blot analysis; type: cell-based; conditions: filed as activator, dose 2.5-10 µM
PC12 [18] = assay: Activation of Nrf2-ARE pathway in rat PC-12 cells assessed as increase in Nrf2 expression level in cytoplasm at 10 uM incubated for 3 hrs by Western blot analysis; type: cell-based; conditions: filed as activator
PC-12 [19] = assay: Anti-apoptotic activity against H2O2-induced apoptosis in rat PC12 cells assessed as living cells at 10 uM preincubated for 12 hrs followed by replacement with fresh media and H2O2 stimulation for 12 hrs by Annexin-V/7-AAD staining based flow cytometry (Rvb=92.9%); type: functional
PC-12 [20] = assay: Neuroprotective activity against rat PC12 cells assessed as decrease in H2O2-induced intracellular Ca2+ level at 2.5 uM preincubated for 12 hrs followed by replacement with fresh media and H2O2 stimulation for 12 hrs by Fluo-3 AM based flow cytometry relative to control; type: functional; design: scale not given: the % may be the effect or the level left
[21] = Toxicity in okadaic acid-induced cognitive impairment ICR mouse model assessed as swimming speed change at 0.08 to 0.24 mg/kg, iv twice at 3days interval before and after okadaic acid stimulation measured for 5 days by Morris water maze test; type: organism-based; conditions: in vivo, 120 h, dose 0.08-0.24 mg/kg, time 5 day
PC-12 [22] = assay: Neuroprotective activity against H2O2-induced cytotoxicity in rat PC12 cells assessed as increase in cell viability at 10 uM preincubated for 12 hrs followed by replacement with fresh media and H2O2 stimulation for 12 hrs by MTT assay; type: functional, cell-based
[23] = target: T1, Glycogen synthase kinase-3 beta; assay: Inhibition of human GSK-3beta overexpressed in human HEK293T cells assessed as decrease in Tau phosphorylation at s396 at 0.625 to 10 uM incubated for 24 hrs by Western blot analysis; type: cell-based; conditions: dose 0.625-10 µM
Target sequence in this assay (P49841 whole entry, looked up): as the sequence (P49841 whole entry) above

Mus musculus [24] = assay: Antialzheimer activity in okadaic acid-induced cognitive impairment ICR mouse model assessed as increase of search time in target quadrant at 0.08 to 0.24 mg/kg, iv twice at 3days interval before and after okadaic acid stimulation measured upto 14 days by Morris water maze test relative to control; type: functional, organism-based; conditions: dose 0.08-0.24 mg/kg, time <= 14.0 day
PC-12 [25] = assay: Anti-apoptotic activity against H2O2-induced apoptosis in rat PC12 cells assessed as early apoptotic cells at 5 uM preincubated for 12 hrs followed by replacement with fresh media and H2O2 stimulation for 12 hrs by Annexin-V/7-AAD staining based flow cytometry (Rvb=0.8%); type: functional
[26] = target: T1, Glycogen synthase kinase-3 beta; assay: Inhibition of human GSK-3beta overexpressed in human HEK293T cells assessed as reduction in GSK-3beta expression level at 0.625 to 10 uM incubated for 24 hrs by Western blot analysis; type: cell-based; conditions: dose 0.625-10 µM
Target sequence in this assay (P49841 whole entry, looked up): as the sequence (P49841 whole entry) above

In the case of `COc1ccc(-c2ocnc2C(=O)NCCCc2ccc(NC(=O)/C=C/c3cc(C(C)(C)C)c(O)c(C(C)(C)C)c3)cc2)cc1Cl`, the Activity (PC-12 [1]) is reported as 12.9%, the Activity (PC-12 [2]) is reported as “Non-Toxic” and the Activity (PC-12 [3]) is reported as 6%. It also gave an Activity (PC-12 [4]) of 81.3%, an Activity (PC-12 [5]) of 16.4% and an Activity (PC-12 [6]) of 76.8%. It also gave an Activity (PC-12 [7]) of 68.4%, an Activity (PC-12 [8]) of 31.1% and an Activity (PC-12 [9]) of 28.4%. The Activity (PC-12 [10]) was 1.3%, the Activity (PC12 [11]) was “Dose-Dependent Effect” and the IC50 [12] was 250 pM. For the same compound, the Activity (PC-12 [13]) was “inactive”, the Activity (PC-12 [14]) was 5.5% and the Activity (Mus musculus [15]) was “Active”. For the same compound, the Activity (PC12 [16]) was “Active”, the Activity (L02) was “Non-Toxic” and the Activity (PC12 [17]) was “Dose-Dependent Effect”. For the same compound, the Activity (PC12 [18]) was “Active”, the Activity (PC-12 [19]) was 90.7% and the Activity (PC-12 [20]) was 24.5%. For the same compound, the Activity [21] was “Non-Toxic”, the Activity (PC-12 [22]) was “Active” and the inhibition [23] was “Dose-Dependent Effect”. The Activity (Mus musculus [24]) was “Active”, the Activity (PC-12 [25]) was 1.5% and the inhibition [26] was “Dose-Dependent Effect”.
